Data set [1] can be described thus: Therapeutic index, ratio of TC50 for human MT4 cells to IC50 for HIV1 3B. It counts as cell-based.
A short description of data set [2]: AUC (0 to infinity) in Sprague-Dawley rat at 5 mg/kg, po. It counts as ADME, organism-based. Further details: time infinity, dose 5 mg/kg, route oral. The note with it: plasma.
A short description of data set [3]: Metabolic stability in Sprague-Dawley rat liver microsomes assessed as compound remaining after 40 mins. It counts as ADME, Microsome. Conditions: read-out: Stability.
Data set [4] can be described thus: Tmax in Sprague-Dawley rat at 5 mg/kg, po. It counts as ADME, organism-based. Further details: dose 5 mg/kg, route oral. The note with it: in vivo.
The nature of data set [5]: Half life in Sprague-Dawley rat at 5 mg/kg, po. It counts as ADME, organism-based. Further details: dose 5 mg/kg, route oral. Conditions: in vivo.
Data set [6] relates to Human immunodeficiency virus 1. Briefly: Antiviral activity against HIV1 NL4-3 infected in human MT4 cells assessed as cytoprotection against virus-induced cytopathic effect after 4 days by cell viability assay. Conditions: Human immunodeficiency virus 1, NL4-3, MT4, 96 h. It counts as functional, organism-based. For orientation: Damage to the host cells serves as the signal in cytopathic effect assays.

A short description of data set [7]: Oral bioavailability in Sprague-Dawley rat at 5 mg/kg. It counts as ADME, organism-based. The note with it: in vivo.
Data set [8] in a line: Metabolic stability in human liver microsomes assessed as compound remaining after 40 mins. It counts as ADME, Microsome. Conditions: read-out: Stability.
Data set [9] in a line: (§1) Cytotoxicity against human PBMC by cell viability assay. It counts as cell-based. The note with it: read-out: TC50 (the source's name).
Data set [10] has as its system Human immunodeficiency virus 1. The data set can be described thus: Antiviral activity against HIV1 3B replication in human PBMC assessed as reverse transcriptase activity after 7 days. It counts as functional, organism-based. The note with it: for IC50: Human immunodeficiency virus 1, 3B, 168 h.
Data set [11] can be described thus: Therapeutic index, ratio of TC50 for human MT4 cells to EC50 for HIV1 NL43. It counts as cell-based.
Data set [12] in a line: Cmax in Sprague-Dawley rat at 5 mg/kg, po. It counts as ADME, organism-based. Further details: dose 5 mg/kg, route oral. Conditions: in vivo.
The nature of data set [13]: Cytotoxicity against human MT4 cells after 4 days by cell viability assay. It counts as cell-based. The note with it: read-out: TC50.
Another data set concerns PBMC. The data set is described as §1. It counts as cell-based.

Data on twelve compounds can be found in ChEMBL document CHEMBL1141017, “Triterpene based compounds with potent anti-maturation activity against HIV-1” (Bioorg Med Chem Lett, 2008).

Each structure is given as a SMILES string. Activity calls are given as the source filed them. The rule behind the calls is not given here.

`C=C(C)[C@@H]1CC[C@]2(C(=O)NCc3ccc(Cl)cc3)CC[C@]3(C)[C@H](CC[C@@H]4[C@@]5(C)CC[C@H](OC(=O)CC(C)(C)C(=O)O)C(C)(C)[C@@H]5CC[C@]43C)[C@@H]12`: the selectivity ratio in data set [1] and in data set [11] was greater than 400 each time. In [2], this compound showed an AUC(0-inf) of 1340 ng·h/mL. Besides, the remaining at 40 min in [3] and in data set [8] was greater than 60% throughout. Moreover, in data set [4], the Tmax came to 2 h. The same compound showed a half-life in data set [5] of 480 min. Also, the EC50 in data set [6] was 17.9 nM. Further, the bioavailability in data set [7] amounted to 3.91%. Besides, the CC50 in data set [9] is greater than 10 µM. Besides, in data set [10], the IC50 turned out to be 27 nM. Besides, the peak level in data set [12] (Cmax) was 270 nM. In data set [13], the CC50 at 96 h was greater than 10 µM.
As for `C=C(C)[C@@H]1CC[C@]2(C(=O)NCc3ccccc3OC)CC[C@]3(C)[C@H](CC[C@@H]4[C@@]5(C)CC[C@H](OC(=O)CC(C)(C)C(=O)O)C(C)(C)[C@@H]5CC[C@]43C)[C@@H]12`, the selectivity ratio in [1] and in [11] was greater than 400 in each case. The same compound had an AUC(0-inf) in data set [2] of 114 ng·h/mL. Moreover, the remaining at 40 min in data set [3] and in data set [8] was 10% in each case. Moreover, the Tmax in data set [4] was found to be 2 h. In data set [5], the half-life is 120 min. The EC50 in data set [6] came to 24 nM. The CC50 in data set [9] was greater than 10 µM. In addition, the IC50 in data set [10] is 7 nM. In data set [12], this compound returned a peak concentration (Cmax) of 40 nM. The CC50 at 96 h in data set [13] is greater than 10 µM.
Consider `C=C(C)[C@@H]1CC[C@]2(C(=O)NCc3ccc4cccc(O)c4n3)CC[C@]3(C)[C@H](CC[C@@H]4[C@@]5(C)CC[C@H](OC(=O)CC(C)(C)C(=O)O)C(C)(C)[C@@H]5CC[C@]43C)[C@@H]12`, for which the remaining at 40 min in data set [3] and in data set [8] was greater than 40% each time. The EC50 in data set [6] is 3 nM. Besides, the CC50 in data set [9] was greater than 10 µM. The IC50 in data set [10] turned out to be 4 nM. Besides, the CC50 at 96 h in [13] is greater than 10 µM.
Take `C=C(C)[C@@H]1CC[C@]2(C(=O)NCc3ccc(OC)cc3)CC[C@]3(C)[C@H](CC[C@@H]4[C@@]5(C)CC[C@H](OC(=O)CC(C)(C)C(=O)O)C(C)(C)[C@@H]5CC[C@]43C)[C@@H]12`: the selectivity ratio in data set [1] and in data set [11] was greater than 400 in each case. For the same compound, the remaining at 40 min in data set [3] and in data set [8] was 10% throughout. In data set [6], the EC50 was 26 nM. Also, the CC50 in data set [9] was greater than 10 µM. The IC50 in data set [10] turned out to be 23.5 nM. Besides, in data set [13], the CC50 at 96 h was greater than 10 µM.
Take `C=C(C)[C@@H]1CC[C@]2(C(=O)NCc3ccc4c(c3)OCO4)CC[C@]3(C)[C@H](CC[C@@H]4[C@@]5(C)CC[C@H](OC(=O)CC(C)(C)C(=O)O)C(C)(C)[C@@H]5CC[C@]43C)[C@@H]12`: the selectivity ratio in data set [1] and in [11] was greater than 400 each time. For the same compound, the remaining at 40 min in data set [3] and in data set [8] was 10% throughout. Moreover, in data set [6], the EC50 is 23 nM. In [9], the CC50 was greater than 10 µM. For the same compound, in [10], the half-inhibitory concentration (IC50) stood at 9 nM. Besides, the CC50 at 96 h in data set [13] was greater than 10 µM.
For the compound `C=C(C)[C@@H]1CC[C@]2(C(=O)NCc3ccc(F)cc3C(=O)O)CC[C@]3(C)[C@H](CC[C@@H]4[C@@]5(C)CC[C@H](OC(=O)CC(C)(C)C(=O)O)C(C)(C)[C@@H]5CC[C@]43C)[C@@H]12`, the selectivity ratio in [1] and in [11] was greater than 400 throughout. For the same compound, the remaining at 40 min in data set [3] and in [8] was 10% in each case. Further, the EC50 in data set [6] was 52 nM. In addition, the CC50 in [9] stood at 1.5 µM. For the same compound, the IC50 in [10] was 4 nM. Moreover, the CC50 at 96 h in data set [13] stood at 3.2 µM.
Regarding `C=C(C)[C@@H]1CC[C@]2(C(=O)NCc3ccc(OC(F)(F)F)cc3)CC[C@]3(C)[C@H](CC[C@@H]4[C@@]5(C)CC[C@H](OC(=O)CC(C)(C)C(=O)O)C(C)(C)[C@@H]5CC[C@]43C)[C@@H]12`, the selectivity ratio in [1] and in data set [11] was greater than 400 throughout. The remaining at 40 min in [3] and in data set [8] was 10% throughout. The EC50 in data set [6] amounted to 190 nM. Besides, the TC50 entry with PBMC is recorded as “Not Active”. In [10], the outcome was inactive. In addition, the CC50 at 96 h in data set [13] worked out at 1 µM.
With `C=C(C)[C@@H]1CC[C@]2(C(=O)NCc3cccc(OC(F)(F)F)c3)CC[C@]3(C)[C@H](CC[C@@H]4[C@@]5(C)CC[C@H](OC(=O)CC(C)(C)C(=O)O)C(C)(C)[C@@H]5CC[C@]43C)[C@@H]12`, the selectivity ratio in [1] and in [11] was greater than 400 each time. Besides, the remaining at 40 min in data set [3] and in data set [8] was 10% throughout. In addition, the EC50 in [6] was found to be 110 nM. Besides, the TC50 result in the data set on PBMC is reported as “Not Active”. The result in data set [10] was inactive. The CC50 at 96 h in data set [13] was found to be 5.2 µM.
Take `C=C(C)[C@@H]1CC[C@]2(C(=O)NCc3ccccc3C(=O)O)CC[C@]3(C)[C@H](CC[C@@H]4[C@@]5(C)CC[C@H](OC(=O)CC(C)(C)C(=O)O)C(C)(C)[C@@H]5CC[C@]43C)[C@@H]12`: the selectivity ratio in data set [1] and in [11] was greater than 400 each time. For the same compound, the AUC(0-inf) in data set [2] came to 1700 ng·h/mL. Further, the remaining at 40 min in data set [3] and in [8] was greater than 60% in each case. The Tmax in data set [4] turned out to be 3.2 h. The half-life in data set [5] is 120 min. For the same compound, the EC50 in data set [6] came to 6 nM. Further, in data set [7], the bioavailability came out at 56.4%. For the same compound, in data set [9], the CC50 is 9.7 µM. Besides, the IC50 in data set [10] was 16 nM. This compound returned a Cmax in [12] of 580 nM. In addition, in [13], the CC50 at 96 h stood at 4.5 µM.
As to `C=C(C)[C@@H]1CC[C@]2(C(=O)NCc3ccccc3)CC[C@]3(C)[C@H](CC[C@@H]4[C@@]5(C)CC[C@H](OC(=O)CC(C)(C)C(=O)O)C(C)(C)[C@@H]5CC[C@]43C)[C@@H]12`, the selectivity ratio in data set [1] and in data set [11] was greater than 400 each time. Besides, in [3], the remaining at 40 min was determined as 10%. Also, the EC50 in data set [6] came to 23 nM. Also, in data set [9], the CC50 is greater than 10 µM. Moreover, the IC50 in data set [10] amounted to 11 nM. In addition, in data set [13], the CC50 at 96 h is greater than 10 µM.
`C=C(C)[C@@H]1CC[C@]2(C(=O)NCCc3ccc(OC)cc3)CC[C@]3(C)[C@H](CC[C@@H]4[C@@]5(C)CC[C@H](OC(=O)CC(C)(C)C(=O)O)C(C)(C)[C@@H]5CC[C@]43C)[C@@H]12`: in [2], the AUC(0-inf) is 245 ng·h/mL. In addition, the Tmax in data set [4] turned out to be 2 h. Also, the half-life in [5] was 288 min. Further, in data set [6], the EC50 worked out at 12 nM. In data set [7], this compound came in with a bioavailability of 1.84%. In addition, in data set [9], the CC50 was 1 µM. In [10], the IC50 was 60 nM. Besides, the concentration in data set [12] peaked (Cmax) at 40 nM. The CC50 at 96 h in [13] was greater than 10 µM.
Regarding `C=C(C)[C@@H]1CC[C@]2(C(=O)NCc3cccc(OC)c3)CC[C@]3(C)[C@H](CC[C@@H]4[C@@]5(C)CC[C@H](OC(=O)CC(C)(C)C(=O)O)C(C)(C)[C@@H]5CC[C@]43C)[C@@H]12`, the selectivity ratio in data set [1] and in data set [11] was greater than 400 in each case. For the same compound, the remaining at 40 min in [3] and in data set [8] was 10% throughout. Also, the EC50 in [6] is 19 nM. Also, the CC50 in [9] was greater than 10 µM. For the same compound, the IC50 in [10] was 14 nM. Moreover, the CC50 at 96 h in [13] is greater than 10 µM.

By AUC(0-inf) is commonly meant the area under the concentration-time curve extrapolated to infinity. Read a high AUC(0-inf) as more exposure. What is called Tmax is the time from dosing to the highest level. Broadly, the half-life is how long it takes for the measured level to halve. A high value points to slow loss. In general, EC50 refers to the midpoint of the concentration-response curve. By bioavailability is commonly meant dose-corrected exposure relative to a reference, in per cent. Broadly, the IC50 is the concentration that gives 50% inhibition. What is called Cmax is the highest concentration seen after dosing.
